# Test results from patent publication US20050147662A1, “Compounds and compositions for delivering active agents” (Emisphere Technologies, Inc., priority 2003, published 2005).
structure (smiles),measurement,value
"CN(CCCCCCCC(=O)O)C(=O)c1ccccc1O [Compound 1, 8-[(2-Hydroxy-benzoyl)-methyl-amino]-octanoic acid]",melting point,85 to 88 °C
